Source: patent US20030229053A1, “Compounds and methods for the treatment or prevention of flavivirus infections” (Shire BioChem Inc., priority 2001, published 2003)

target: recombinant HCV NS5B (Hepatitis C virus genotype 1b, UniProt P26663); assay: biochemical; conditions: flashplate, polyrA/biotinylated-oligo dT, 100 nM NS5B, 2 hrs at room temperature; read-out: RNA pol Assay 2 IC50 (μm)
Procedure: In vitro HCV RdRp Flashplate Scintillation Proximity Assay (Strep-Flash Assay) Used to Evaluate Analogues:
In brief, a 400 ng/μl polyrA solution (Amersham Pharmacia Biotech) was mixed volume-to-volume with 5′ biotin-oligo dT12 at 20 pmol/μl. The template and primers were denatured at 95 C for 5 minutes then incubated at 37 C for 10 minutes. Annealed template-primers were subsequently diluted in a Tris-HCl containing buffer and allowed to bind to streptavidin-coated flashplates overnight.

recombinant HCV NS5B, sequence (P26663 2420-3010 limits assumed): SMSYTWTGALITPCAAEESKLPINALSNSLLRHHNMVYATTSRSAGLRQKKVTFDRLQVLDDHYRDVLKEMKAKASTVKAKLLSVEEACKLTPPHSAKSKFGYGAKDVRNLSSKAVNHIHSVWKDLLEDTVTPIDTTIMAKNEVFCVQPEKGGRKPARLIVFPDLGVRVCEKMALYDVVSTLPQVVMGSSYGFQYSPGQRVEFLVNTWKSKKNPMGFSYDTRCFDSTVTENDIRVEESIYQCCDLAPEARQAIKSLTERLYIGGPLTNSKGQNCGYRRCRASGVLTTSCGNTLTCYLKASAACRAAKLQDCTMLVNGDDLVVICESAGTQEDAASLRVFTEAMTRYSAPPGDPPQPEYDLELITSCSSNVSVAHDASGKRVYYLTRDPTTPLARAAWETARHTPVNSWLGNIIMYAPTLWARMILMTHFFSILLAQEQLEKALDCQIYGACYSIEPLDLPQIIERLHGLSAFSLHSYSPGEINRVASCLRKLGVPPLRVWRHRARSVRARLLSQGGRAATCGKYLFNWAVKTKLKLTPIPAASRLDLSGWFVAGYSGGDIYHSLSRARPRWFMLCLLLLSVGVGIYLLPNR

Row | Structure (SMILES) | IC50
1 | CN(C(=O)c1ccc(Cl)cc1Cl)[C@H](Cc1ccc(-c2cc3ccccc3o2)cc1)C(=O)O [Compound #29, 3-(4-Benzofuran-2-yl-phenyl)-2-[(2,4-dichloro-benzoyl)-methyl-amino]-propionic acid] | 5 to 20 µM
2 | Nc1cccc(CN(C(=O)c2ccc(Cl)cc2Cl)[C@@H](Cc2ccccc2)C(=O)O)c1 [Compound #194, 2-[(3-Amino-benzyl)-(2,4-dichloro-benzoyl)-amino]-3-phenyl-propionic acid] | 5 to 20 µM
3 | O=C(O)[C@@H](Cc1ccccc1)N(Cc1ccccc1)C(=O)c1ccc(Cl)cc1Cl [Compound #199, 2-[Benzyl-(2,4-dichloro-benzoyl)-amino]-3-phenyl-propionic acid] | 5 to 20 µM
4 | O=C(O)[C@H](Cc1ccccc1)N(Cc1ccccc1[N+](=O)[O-])C(=O)c1ccc(Cl)cc1Cl [Compound #201, 2-[(2,4-DICHLORO-BENZOYL)-(2-NITRO-BENZYL)-AMINO]-3-PHENYL-PROPIONIC ACID] | 5 to 20 µM
5 | O=C(O)[C@H](Cc1ccccc1)N(Cc1ccc([N+](=O)[O-])cc1)C(=O)c1ccc(Cl)cc1Cl [Compound #202, 2-[(2,4-DICHLORO-BENZOYL)-(4-NITRO-BENZYL)-AMINO]-3-PHENYL-PROPIONIC] | 5 to 20 µM
6 | N#Cc1ccccc1CN(C(=O)c1ccc(Cl)cc1Cl)[C@@H](Cc1ccccc1)C(=O)O [Compound #203, 2-[(2-CYANO-BENZYL)-(2,4-DICHLORO-BENZOYL)-AMINO]-3-PHENYL-PROPIONIC ACID] | 5 to 20 µM
7 | N#Cc1ccc(CN(C(=O)c2ccc(Cl)cc2Cl)[C@@H](Cc2ccccc2)C(=O)O)cc1 [Compound #204, 2-[(4-CYANO-BENZYL)-(2,4-DICHLORO-BENZOYL)-AMINO]-3-PHENYL-PROPIONIC ACID] | 5 to 20 µM
8 | CS(=O)(=O)c1cccc(CN(C(=O)c2ccc(Cl)cc2Cl)[C@@H](Cc2ccccc2)C(=O)O)c1 [Compound #208, 2-[(2,4-DICHLORO-BENZOYL)-(3-METHANESULFONYL-BENZYL)-AMINO]-3-PHENYL-PROPIONIC ACID] | 5 to 20 µM
9 | O=C(O)[C@H](Cc1ccccc1)N(Cc1ccc(-c2cccc(C(F)(F)F)c2)s1)C(=O)c1ccc(Cl)cc1Cl [Compound #211, 2-{(2,4-Dichloro-benzoyl)-[5-(3-trifluoromethyl-phenyl)-thiophen-2-ylmethyl]-amino}-3-phenyl-propionic acid] | 5 to 20 µM
10 | O=C(O)[C@H](Cc1ccccc1)N(Cc1cnc(Cl)s1)C(=O)c1ccc(Cl)cc1Cl [compound #140, (2s)-2-[(2-Chloro-thiazol-5-ylmethyl)-(2,4-dichloro-benzoyl)-amino]-3-phenyl-propionic acid] | < 5 µM
11 | O=C(O)[C@H](Cc1ccccc1)N(Cc1ccc(-c2ccc(F)cc2)s1)C(=O)c1ccc(Cl)cc1Cl [compound #141, (2s)-2-{(2,4-Dichloro-benzoyl)-[5-(4-fluoro-phenyl)-thiophen-2-ylmethyl]-amino}-3-phenyl-propionic acid] | < 5 µM
12 | O=C(O)[C@H](Cc1ccccc1)N(Cc1sccc1-c1ccc(F)c(Cl)c1)C(=O)c1ccc(Cl)cc1Cl [compound #145, (2s)-2-[[3-(3-Chloro-4-fluoro-phenyl)-thiophen-2-ylmethyl]-(2,4-dichloro-benzoyl)-amino]-3-phenyl-propionic acid] | 5 to 20 µM
13 | O=C(O)[C@H](Cc1ccccc1)N(Cc1sccc1Br)C(=O)c1ccc(Cl)cc1Cl [compound #146, (2s)-2-[(3-Bromo-thiophen-2-ylmethyl)-(2,4-dichloro-benzoyl)-amino]-3-phenyl-propionic acid] | < 5 µM
14 | CC(C)(C(=O)O)N(Cc1ccc(-c2cccc(C(F)(F)F)c2)o1)C(=O)c1ccc(Cl)cc1Cl [compound #147, (2s)-2-{(2,4-Dichloro-benzoyl)-[5-(3-trifluoromethyl-phenyl)-furan-2-ylmethyl]-amino}-2-methyl-propionic acid] | 5 to 20 µM

The remaining lines, values ahead:

Row | IC50 | Structure (SMILES)
15 | < 5 µM | CN(C(=O)c1ccc(Cl)cc1Cl)[C@H](Cc1ccc(Br)s1)C(=O)O (stereo in doubt) [compound #169, 3-(5-Bromo-thiophen-2-yl)-2-[(2,4-dichloro-benzoyl)-methyl-amino]-propionic acid]
16 | < 5 µM | O=C(O)[C@H](Cc1ccccc1)N(Cc1cccc([N+](=O)[O-])c1)C(=O)c1ccc(Cl)cc1Cl [Compound #53, (2S)-2-[(2,4-Dichloro-benzoyl)-(3-nitro-benzyl)-amino]-3-phenyl-propionic acid]
17 | < 5 µM | COC(=O)c1cccc(CN(C(=O)c2ccc(Cl)cc2Cl)[C@@H](Cc2ccccc2)C(=O)O)c1 [Compound #117, 3-{[(1-Carboxy-2-phenyl-ethyl)-(2,4-dichloro-benzoyl)-amino]-methyl}-benzoic acid methyl ester]
18 | < 5 µM | N#Cc1cccc(-c2ccc(CN(C(=O)c3ccc(Cl)cc3Cl)[C@@H](Cc3ccccc3)C(=O)O)o2)c1 [Compound #119, 2-[[5-(3-Cyano-phenyl)-furan-2-ylmethyl]-(2,4-dichloro-benzoyl)-amino]-3-phenyl-propionic acid]
19 | < 5 µM | Cc1ccc(C(=O)N(Cc2cc(-c3ccc(F)c(Cl)c3)cs2)[C@@H](Cc2ccccc2)C(=O)O)c(C)c1 [Compound #192, 2-[[4-(3-Chloro-4-fluoro-phenyl)-thiophen-2-ylmethyl]-(2,4-dimethyl-benzoyl)-amino]-3-phenyl-propionic acid]
20 | < 5 µM | O=C(O)c1cccc(CN(C(=O)c2ccc(Cl)cc2Cl)[C@@H](Cc2ccccc2)C(=O)O)c1 [Compound #193, 3-{[(1-Carboxy-2-phenyl-ethyl)-(2,4-dichloro-benzoyl)-amino]-methyl}-benzoic acid]
21 | < 5 µM | O=C(O)C(Cc1ccccc1)N(Cc1cccc(-c2nn[nH]n2)c1)C(=O)c1ccc(Cl)cc1Cl (centres unmarked) [Compound #200, 2-{(2,4-DICHLORO-BENZOYL)-[3-(2H-TETRAZOL-5-YL)-BENZYL]-AMINO}-3-PHENYL-PROPIONIC ACID]
22 | < 5 µM | CC(=O)c1cccc(CN(C(=O)c2ccc(Cl)cc2Cl)[C@@H](Cc2ccccc2)C(=O)O)c1 [Compound #209, 2-[(3-ACETYL-BENZYL)-(2,4-DICHLORO-BENZOYL)-AMINO]-3-PHENYL-PROPIONIC ACID]
23 | < 5 µM | O=C(O)[C@H](Cc1ccccc1)N(Cc1ccc[n+]([O-])c1)C(=O)c1ccc(Cl)cc1Cl [Compound #210, 2-[(2,4-DICHLORO-BENZOYL)-(1-OXY-PYRIDIN-3-YLMETHYL)-AMINO]-3-PHENYL-PROPIONIC ACID]
24 | < 5 µM | N#Cc1cccc(CN(C(=O)c2ccc(Cl)cc2Cl)[C@@H](Cc2ccccc2)C(=O)O)c1 [compound #54, (2S)-2-[(3-Cyano-benzyl)-(2,4-dichloro-benzoyl)-amino]-3-phenyl-propionic acid]
25 | < 5 µM | O=C(O)[C@H](Cc1ccccc1)N(Cc1cnc(-c2cccc([N+](=O)[O-])c2)s1)C(=O)c1ccc(Cl)cc1Cl [compound #64, 2-{(2,4-Dichloro-benzoyl)-[2-(3-nitro-phenyl)-thiazol-5-ylmethyl]-amino}-3-phenyl-propionic acid]
26 | < 5 µM | O=C(O)[C@H](Cc1ccccc1)N(Cc1cnc(-c2cc3ccccc3o2)s1)C(=O)c1ccc(Cl)cc1Cl [compound #86, 2-[(2-Benzofuran-2-yl-thiazol-5-ylmethyl)-(2,4-dichloro-benzoyl)-amino]-3-phenyl-propionic acid]
